Measurements published in patent US8952024B2, “Herbicidal pyrimidone derivatives” (E I du Pont de Nemours and Company, priority 2009, dated 2015).

How the values were obtained:
Assay in all cases: Test B pre-/postemergence plant response
Type in all cases: in vivo
[1] = test system: johnsongrass (Sorghum halepense); details: for Johnsongrass plant response rating (0 to 100 scale): 62 g ai/ha, postemergence, 0 is no effect, 100 is complete control; for Plant response rating, Johnsongrass: Postemergence
How it was run: (§1)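 Each species received compound formulated in non-phytotoxic solvent with surfactant, either at planting into a loam and sand blend or as a foliar spray once plants reached 2 to 18 cm in peat-based medium. Plants stayed in the greenhouse 13 to 15 days before visual evaluation against controls, scored 0 (no effect) to 100 (complete control).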

[2] = test system: Italian ryegrass (Lolium multiflorum); details: for Ryegrass, Italian plant response rating (0 to 100 scale): 62 g ai/ha, postemergence, 0 is no effect, 100 is complete control; for Plant response rating, Ryegrass, Italian: Postemergence
How it was run: as §1

[3] = test system: green foxtail (Setaria viridis); details: for Foxtail, Green plant response rating (0 to 100 scale): 62 g ai/ha, postemergence, 0 is no effect, 100 is complete control; for Plant response rating, Foxtail, Green: Postemergence
How it was run: as §1

[4] = test system: large crabgrass (Digitaria sanguinalis); details: for Crabgrass, Large plant response rating (0 to 100 scale): 62 g ai/ha, postemergence, 0 is no effect, 100 is complete control; for Plant response rating, Crabgrass, Large: Postemergence
How it was run: as §1

[5] = test system: cocklebur (Xanthium strumarium); details: for Cocklebur plant response rating (0 to 100 scale): 62 g ai/ha, postemergence, 0 is no effect, 100 is complete control; for Plant response rating, Cocklebur: Postemergence
How it was run: as §1

[6] = test system: morningglory (Ipomoea coccinea); details: for Morningglory plant response rating (0 to 100 scale): 62 g ai/ha, postemergence, 0 is no effect, 100 is complete control; for Plant response rating, Morningglory: Postemergence
How it was run: as §1

[7] = test system: giant foxtail (Setaria faberii); details: for Foxtail, Giant plant response rating (0 to 100 scale): 62 g ai/ha, postemergence, 0 is no effect, 100 is complete control; for Plant response rating, Foxtail, Giant: Postemergence
How it was run: as §1

[8] = test system: blackgrass (Alopecurus myosuroides); details: for Blackgrass plant response rating (0 to 100 scale): 62 g ai/ha, postemergence, 0 is no effect, 100 is complete control; for Plant response rating, Blackgrass: Postemergence
How it was run: as §1

soybean (Glycine max) = details: for Soybean plant response rating (0 to 100 scale): 62 g ai/ha, postemergence, 0 is no effect, 100 is complete control; for Plant response rating, Soybean: Postemergence
How it was run: as §1

[9] = test system: velvetleaf (Abutilon theophrasti); details: for Velvetleaf plant response rating (0 to 100 scale): 62 g ai/ha, postemergence, 0 is no effect, 100 is complete control; for Plant response rating, Velvetleaf: Postemergence
How it was run: as §1

[10] = test system: ragweed (common ragweed, Ambrosia elatior); details: for Ragweed plant response rating (0 to 100 scale): 62 g ai/ha, postemergence, 0 is no effect, 100 is complete control; for Plant response rating, Ragweed: Postemergence
How it was run: as §1

kochia (Kochia scoparia) = details: for Kochia plant response rating (0 to 100 scale): 62 g ai/ha, postemergence, 0 is no effect, 100 is complete control; for Plant response rating, Kochia: Postemergence
How it was run: as §1

corn (Zea mays) = details: for Corn plant response rating (0 to 100 scale): 62 g ai/ha, postemergence, 0 is no effect, 100 is complete control; for Plant response rating, Corn: Postemergence
How it was run: as §1

[11] = test system: goosegrass (Eleusine indica); details: for Goosegrass plant response rating (0 to 100 scale): 62 g ai/ha, postemergence, 0 is no effect, 100 is complete control; for Plant response rating, Goosegrass: Postemergence
How it was run: as §1

[12] = 31 g ai/ha, 0 to 100 scale (0 no effect, 100 complete control)
[13] = 125 g ai/ha, scale 0 to 100 (0 no effect, 100 complete control)
[14] = 250 g ai/ha, scale 0 to 100 (0 no effect, 100 complete control), 13 to 15 days

`CCCn1c(-c2cc(F)cc(F)c2)ncc(C(=O)C2=C(O)CCCC2=O)c1=O` [Compound 152] was tested. Which “Johnsongrass plant response rating (0 to 100 scale)” value ([1]; 13 to 15 days) did it give?
The value was 90.

What about the “Plant response rating, Johnsongrass” value [1, 12] of the same molecule?
Its value is 70.

And the “Plant response rating, Johnsongrass” value [1, 13]?
Its value is 95.

What about the “Plant response rating, Johnsongrass” value [1, 14] of the same molecule?
Its value is 100.

And the “Ryegrass, Italian plant response rating (0 to 100 scale)” value ([2]; 13 to 15 days)?
The value was 30.

And the “Plant response rating, Ryegrass, Italian” value [2, 12]?
The value was 5.

And the “Plant response rating, Ryegrass, Italian” value [2, 13]?
The value was 45.

What about the “Plant response rating, Ryegrass, Italian” value [2, 14] of the same molecule?
Its value is 80.

What about the “Foxtail, Green plant response rating (0 to 100 scale)” value ([3]; 13 to 15 days) of the same molecule?
Its value is 75.

And the “Plant response rating, Foxtail, Green” value [3, 12]?
The value was 75.

And the “Plant response rating, Foxtail, Green” value [3, 13]?
The value was 98.

And the “Plant response rating, Foxtail, Green” value [3, 14]?
The value was 100.

And the “Crabgrass, Large plant response rating (0 to 100 scale)” value ([4]; 13 to 15 days)?
Its value is 85.

What about the “Plant response rating, Crabgrass, Large” value [4, 12] of the same molecule?
The value was 75.

And the “Plant response rating, Crabgrass, Large” value [4, 13]?
Its value is 95.

And the “Plant response rating, Crabgrass, Large” value [4, 14]?
Its value is 95.

What about the “Cocklebur plant response rating (0 to 100 scale)” value ([5]; 13 to 15 days) of the same molecule?
The value was 80.

And the “Plant response rating, Cocklebur” value [5, 12]?
The value was 70.

And the “Plant response rating, Cocklebur” value [5, 13]?
The value was 98.

What about the “Plant response rating, Cocklebur” value [5, 14] of the same molecule?
The value was 100.

What about the “Morningglory plant response rating (0 to 100 scale)” value ([6]; 13 to 15 days) of the same molecule?
Its value is 75.

And the “Plant response rating, Morningglory” value [6, 12]?
The value was 45.

What about the “Plant response rating, Morningglory” value [6, 13] of the same molecule?
The value was 75.

What about the “Plant response rating, Morningglory” value [6, 14] of the same molecule?
Its value is 95.

What about the “Foxtail, Giant plant response rating (0 to 100 scale)” value ([7]; 13 to 15 days) of the same molecule?
Its value is 85.

And the “Plant response rating, Foxtail, Giant” value [7, 12]?
The value was 80.

And the “Plant response rating, Foxtail, Giant” value [7, 13]?
The value was 95.

What about the “Plant response rating, Foxtail, Giant” value [7, 14] of the same molecule?
Its value is 98.

And the “Blackgrass plant response rating (0 to 100 scale)” value ([8]; 13 to 15 days)?
Its value is 35.

What about the “Plant response rating, Blackgrass” value [8, 12] of the same molecule?
Its value is 20.

What about the “Plant response rating, Blackgrass” value [8, 13] of the same molecule?
Its value is 55.

And the “Plant response rating, Blackgrass” value [8, 14]?
The value was 70.

And the “Soybean plant response rating (0 to 100 scale)” value (soybean (Glycine max); 13 to 15 days)?
Its value is 70.

And the “Plant response rating, Soybean” value (soybean (Glycine max); [12])?
The value was 70.

And the “Plant response rating, Soybean” value (soybean (Glycine max); [13])?
Its value is 98.

What about the “Plant response rating, Soybean” value (soybean (Glycine max); [14]) of the same molecule?
Its value is 100.

And the “Velvetleaf plant response rating (0 to 100 scale)” value ([9]; 13 to 15 days)?
The value was 95.

What about the “Plant response rating, Velvetleaf” value [9, 12] of the same molecule?
The value was 85.

What about the “Plant response rating, Velvetleaf” value [9, 13] of the same molecule?
Its value is 100.

What about the “Plant response rating, Velvetleaf” value [9, 14] of the same molecule?
The value was 100.

And the “Ragweed plant response rating (0 to 100 scale)” value ([10]; 13 to 15 days)?
The value was 80.

And the “Plant response rating, Ragweed” value [10, 12]?
Its value is 60.

What about the “Plant response rating, Ragweed” value [10, 13] of the same molecule?
Its value is 95.

And the “Plant response rating, Ragweed” value [10, 14]?
The value was 98.

And the “Kochia plant response rating (0 to 100 scale)” value (kochia (Kochia scoparia); 13 to 15 days)?
Its value is 65.

And the “Plant response rating, Kochia” value (kochia (Kochia scoparia); [12])?
Its value is 10.

What about the “Plant response rating, Kochia” value (kochia (Kochia scoparia); [13]) of the same molecule?
The value was 95.

What about the “Plant response rating, Kochia” value (kochia (Kochia scoparia); [14]) of the same molecule?
Its value is 100.

And the “Corn plant response rating (0 to 100 scale)” value (corn (Zea mays); 13 to 15 days)?
Its value is 45.

And the “Plant response rating, Corn” value (corn (Zea mays); [12])?
The value was 25.

And the “Plant response rating, Corn” value (corn (Zea mays); [13])?
Its value is 65.

What about the “Plant response rating, Corn” value (corn (Zea mays); [14]) of the same molecule?
The value was 80.

And the “Goosegrass plant response rating (0 to 100 scale)” value ([11]; 13 to 15 days)?
The value was 85.

What about the “Plant response rating, Goosegrass” value [11, 12] of the same molecule?
The value was 80.

What about the “Plant response rating, Goosegrass” value [11, 13] of the same molecule?
Its value is 95.

And the “Plant response rating, Goosegrass” value [11, 14]?
Its value is 98.

What does the source list for `CCCn1c(-c2cccc(C(F)(F)F)c2)ncc(C(=O)C2=C(O)CCCC2=O)c1=O` [Compound 155]?
Johnsongrass plant response rating (0 to 100 scale) ([1]; 13 to 15 days): 40; Plant response rating, Johnsongrass [1, 12]: 10; Plant response rating, Johnsongrass [1, 13]: 65; Plant response rating, Johnsongrass [1, 14]: 70; Ryegrass, Italian plant response rating (0 to 100 scale) ([2]; 13 to 15 days): 30; Plant response rating, Ryegrass, Italian [2, 12]: 5; Plant response rating, Ryegrass, Italian [2, 13]: 40; Plant response rating, Ryegrass, Italian [2, 14]: 60; Foxtail, Green plant response rating (0 to 100 scale) ([3]; 13 to 15 days): 50; Plant response rating, Foxtail, Green [3, 12]: 25; Plant response rating, Foxtail, Green [3, 13]: 80; Plant response rating, Foxtail, Green [3, 14]: 80; Crabgrass, Large plant response rating (0 to 100 scale) ([4]; 13 to 15 days): 75; Plant response rating, Crabgrass, Large [4, 12]: 60; Plant response rating, Crabgrass, Large [4, 13]: 80; Plant response rating, Crabgrass, Large [4, 14]: 90; Cocklebur plant response rating (0 to 100 scale) ([5]; 13 to 15 days): 55; Plant response rating, Cocklebur [5, 12]: 15; Plant response rating, Cocklebur [5, 13]: 98; Plant response rating, Cocklebur [5, 14]: 100; Morningglory plant response rating (0 to 100 scale) ([6]; 13 to 15 days): 85; Plant response rating, Morningglory [6, 12]: 55; Plant response rating, Morningglory [6, 13]: 100; Plant response rating, Morningglory [6, 14]: 100; Foxtail, Giant plant response rating (0 to 100 scale) ([7]; 13 to 15 days): 80; Plant response rating, Foxtail, Giant [7, 12]: 65; Plant response rating, Foxtail, Giant [7, 13]: 90; Plant response rating, Foxtail, Giant [7, 14]: 95; Blackgrass plant response rating (0 to 100 scale) ([8]; 13 to 15 days): 35; Plant response rating, Blackgrass [8, 12]: 10; Plant response rating, Blackgrass [8, 13]: 60; Plant response rating, Blackgrass [8, 14]: 65; Soybean plant response rating (0 to 100 scale) (soybean (Glycine max); 13 to 15 days): 95; Plant response rating, Soybean (soybean (Glycine max); [12]): 95; Plant response rating, Soybean (soybean (Glycine max); [13]): 100; Plant response rating, Soybean (soybean (Glycine max); [14]): 100; Velvetleaf plant response rating (0 to 100 scale) ([9]; 13 to 15 days): 100; Plant response rating, Velvetleaf [9, 12]: 100; Plant response rating, Velvetleaf [9, 13]: 100; Plant response rating, Velvetleaf [9, 14]: 100; Ragweed plant response rating (0 to 100 scale) ([10]; 13 to 15 days): 70; Plant response rating, Ragweed [10, 12]: 45; Plant response rating, Ragweed [10, 13]: 90; Plant response rating, Ragweed [10, 14]: 95; Kochia plant response rating (0 to 100 scale) (kochia (Kochia scoparia); 13 to 15 days): 100; Plant response rating, Kochia (kochia (Kochia scoparia); [12]): 35; Plant response rating, Kochia (kochia (Kochia scoparia); [13]): 100; Plant response rating, Kochia (kochia (Kochia scoparia); [14]): 100; Corn plant response rating (0 to 100 scale) (corn (Zea mays); 13 to 15 days): 25; Plant response rating, Corn (corn (Zea mays); [12]): 5; Plant response rating, Corn (corn (Zea mays); [13]): 40; Plant response rating, Corn (corn (Zea mays); [14]): 65; Goosegrass plant response rating (0 to 100 scale) ([11]; 13 to 15 days): 80; Plant response rating, Goosegrass [11, 12]: 65; Plant response rating, Goosegrass [11, 13]: 85; Plant response rating, Goosegrass [11, 14]: 98
